From paper PMC12434536, “Radiosynthesis and Preclinical Evaluation of a Carbon-11 Labeled Phosphodiesterase 7 Inhibitor for PET Neuroimaging” (ACS Medicinal Chemistry Letters, 2025)
pIC50: −log10 of the molar value.

Target: T1, PDE7A (Homo sapiens, UniProt Q13946)
T1 construct: purchased Eurofins Panlabs Discovery Services (contract assay)
Assay: In vitro inhibitory assay of PDE7A activity
Assay type: biochemical
Conditions: human recombinant enzyme; read-out: inhibitory constant (IC50) toward PDE7A
Experimental: protein-ligand complex were saved and were then loaded into Schrödinger Maestro to generate the ligand interaction plot.
In vitro inhibitory assay to PDE7 of compound 27 and selectivity to other PDEs Functional activity of target compound 27 for inhibition of PDE7A activity and the selectivity over other PDE isozymes (PDE1A/B/C, 2A, 3A/B, 4A/B/C/D, 5A, 8A, 9A, and 10A) were evaluated by Eurofins Panlabs Discovery Services and Reaction Biology Corp., respectively. Human recombinant enzymes were used for the assays. The inhibitory assays were performed and calculated in duplicate at 3 µM. If the inhibition percentage was less than 50%, the assay for half-maximal inhibitory concentration (IC50) value was conducted in […]
CYP450 isoform metabolism and in vitro safety profiling
The inhibitory constant of compound 26 toward cytochrome P450-dependent metabolic pathways was determined for individual CYP isoform (CYP1A2, CYP2C9, CYP2C19, CYP2D6, and CYP3A4). Reference inhibitors were included as positive controls. A 10 µM solution of compound 27 was used for initial screening. If the inhibition percentage was less than 50%, the experiment was stopped. If the inhibition potency was greater than 50%, the gradient concentrations of compound 27 were used for IC 50 determination. The P450 reactions were detected at Ext/Em: 405 nm/460 nm (530 nm/605 nm for CYP2C9) in a […]

T1 sequence (Q13946 whole entry): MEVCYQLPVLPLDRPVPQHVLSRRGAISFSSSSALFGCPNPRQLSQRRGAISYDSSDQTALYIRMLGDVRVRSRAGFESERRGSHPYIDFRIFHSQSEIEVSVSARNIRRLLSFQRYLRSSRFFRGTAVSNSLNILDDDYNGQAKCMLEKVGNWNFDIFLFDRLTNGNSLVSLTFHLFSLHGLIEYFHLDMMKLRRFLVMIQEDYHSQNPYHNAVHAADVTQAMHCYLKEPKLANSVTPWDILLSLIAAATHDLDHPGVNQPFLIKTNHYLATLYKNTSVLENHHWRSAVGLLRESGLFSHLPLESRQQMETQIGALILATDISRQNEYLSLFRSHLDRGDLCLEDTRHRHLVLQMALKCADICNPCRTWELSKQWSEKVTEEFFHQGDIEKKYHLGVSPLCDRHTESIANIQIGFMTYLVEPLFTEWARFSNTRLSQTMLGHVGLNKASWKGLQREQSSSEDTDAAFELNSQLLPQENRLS

COc1ccc(Cl)c2c1C1(CCCCC1)NC(=O)N2 [Compound 27] gave a pIC50 of 7.51.
